Laboratory results from patent US20260250318A1, “COMPOSITIONS AND METHODS FOR CROSSING THE BLOOD BRAIN BARRIER” (VOYAGER THERAPEUTICS, INC., priority 2022, published 2026).

Experiments:
[1] = test system: brains, heart, liver, muscle, and DRG of the NHPs; assay: Maturation of TTM-001 and TTM-002 capsids, NGS enrichment in NHP tissues; assay type: in vivo; conditions: relative to AAV9 control
Summary of the method: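 Variants carry mutations within and flanking the loop IV peptide insert: positions 450–466 were triplet-randomized, while positions 449–466 received low-frequency point mutations. The combined pool went into two NHPs, and each peptide was scored by NGS enrichment ratio against AAV9.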

brain = assay: Matured TTM-001 and TTM-002 variants, NGS enrichment in mouse brain; assay type: in vivo, mice; conditions: relative to AAV9 control
[2] = NGS fold-enrichment of matured AAV capsid variants, NHP brain, RNA
[3] = NGS fold-enrichment of RNA, NHP brain
[4] = NGS fold-enrichment, NHP liver DNA
[5] = NGS fold-enrichment, NHP liver RNA
[6] = NGS fold-enrichment, NHP muscle
[7] = NGS fold-enrichment, mouse brain
[8] = NGS fold-enrichment, DRG of NHPs
[9] = NGS fold-enrichment, RNA, brain of NHPs
[10] = NGS fold-enrichment, heart of NHPs
[11] = NGS fold-enrichment, liver DNA of NHPs
[12] = NGS fold-enrichment, liver RNA of NHPs
[13] = NGS fold-enrichment, muscle of NHPs
[14] = NGS fold-enrichment, brain of mice

Sequence | Fold Enrichment relative to AAV9, Brain (NHP) [1, 2] | Fold Enrichment relative to AAV9, DRG (NHP) ([1]; NHP DRG) | Fold Enrichment relative to AAV9, Heart (NHP) ([1]; NHP heart) | Fold Enrichment relative to AAV9, Liver DNA (NHP) ([1]; NHP liver, DNA) | Fold Enrichment relative to AAV9, Liver RNA (NHP) ([1]; NHP liver, RNA) | Fold Enrichment relative to AAV9, Muscle (NHP) ([1]; NHP muscle) | Fold Enrichment relative to AAV9, Brain (NHP) [1, 3] | Fold Enrichment relative to AAV9, DRG (NHP) ([1]; NGS fold-enrichment, NHP DRG) | Fold Enrichment relative to AAV9, Heart (NHP) ([1]; NGS fold-enrichment, NHP heart) | Fold Enrichment relative to AAV9, Liver DNA (NHP) [1, 4] | Fold Enrichment relative to AAV9, Liver RNA (NHP) [1, 5] | Fold Enrichment relative to AAV9, Muscle (NHP) [1, 6] | Fold Enrichment relative to AAV9, Brain (Mouse) (brain; [7]) | Fold Enrichment relative to AAV9, DRG (NHP) [1, 8] | Fold Enrichment relative to AAV9, Brain (NHP) [1, 9] | Fold Enrichment relative to AAV9, Heart (NHP) [1, 10] | Fold Enrichment relative to AAV9, Liver DNA (NHP) [1, 11] | Fold Enrichment relative to AAV9, Liver RNA (NHP) [1, 12] | Fold Enrichment relative to AAV9, Muscle (NHP) [1, 13] | Fold Enrichment relative to AAV9, Brain (Mouse) (brain; [14]) | also measured
KTINGSGSPHSKAQGHHT | 56.559 fold | 0.000 fold | 0.000 fold | 0.117 fold | 0.632 fold | 0.000 fold |  |  |  |  |  |  |  |  |  |  |  |  |  |  | Fold Enrichment relative to AAV9, Brain (Mouse) (brain; mouse brain): 71.050 fold
KTINGPDSPHKIGQNQQS |  |  |  |  |  |  | 85.726 fold | 0.000 fold | 0.055 fold | 0.063 fold | 0.000 fold | 0.171 fold | 10.055 fold |  |  |  |  |  |  |  | 
KTDKNSGSPHSKAQNQQT |  |  |  |  |  |  |  |  |  |  |  |  |  | 0.000 fold | 70.964 fold | 0.000 fold | 0.123 fold | 0.070 fold | 0.000 fold | 62.932 fold | 
KTITGHDSPHKSGQNQWT |  |  |  |  |  |  | 81.658 fold | 0.000 fold | 0.090 fold | 0.000 fold | 0.936 fold | 0.000 fold | 7.744 fold |  |  |  |  |  |  |  | 
KTIPKNGSPHSKAQNQQT | 53.824 fold | 0.000 fold | 0.032 fold | 0.178 fold | 0.115 fold | 0.000 fold |  |  |  |  |  |  |  |  |  |  |  |  |  |  | Fold Enrichment relative to AAV9, Brain (Mouse) (brain; mouse brain): 77.458 fold
KNCVGSGSPHSKAQNQQT |  |  |  |  |  |  |  |  |  |  |  |  |  | 0.000 fold | 60.535 fold | 0.000 fold | 0.282 fold | 0.018 fold | 0.000 fold | 96.175 fold | 
KTINGSGSPHSKAPSMQT | 50.249 fold | 0.000 fold | 0.000 fold | 0.460 fold | 0.941 fold | 0.004 fold |  |  |  |  |  |  |  |  |  |  |  |  |  |  | Fold Enrichment relative to AAV9, Brain (Mouse) (brain; mouse brain): 75.504 fold
KTFPGSGSPHSKVQNQQT |  |  |  |  |  |  | 199.720 fold | 0.000 fold | 0.000 fold | 0.967 fold | 0.000 fold | 0.000 fold | 97.703 fold | 0.000 fold | 199.720 fold | 0.000 fold | 0.967 fold | 0.000 fold | 0.000 fold | 97.703 fold | 
KTINGSGSPHGWVQNQQT |  |  |  |  |  |  | 97.122 fold | 0.000 fold | 0.000 fold | 1.975 fold | 1.240 fold | 0.000 fold | 290.720 fold | 0.000 fold | 97.122 fold | 0.000 fold | 1.975 fold | 1.240 fold | 0.000 fold | 290.720 fold | 
KTVNGNGSPHSKAQNHQT |  |  |  |  |  |  |  |  |  |  |  |  |  | 0.000 fold | 68.889 fold | 0.000 fold | 0.030 fold | 0.000 fold | 0.000 fold | 52.482 fold | 
KTVIGSGSPHSKSQNQQT | 54.603 fold | 0.000 fold | 0.000 fold | 0.106 fold | 0.000 fold | 0.000 fold |  |  |  |  |  |  |  |  |  |  |  |  |  |  | Fold Enrichment relative to AAV9, Brain (Mouse) (brain; mouse brain): 69.121 fold
KTENGSASPHSKALNQQT (KTFNGSASPHSKALNQQT) |  |  |  |  |  |  | 84.258 fold | 0.000 fold | 0.122 fold | 0.037 fold | 0.104 fold | 0.000 fold | 31.855 fold |  |  |  |  |  |  |  | 
KTTNGQDSPHKSGQNQQS |  |  |  |  |  |  | 92.419 fold | 0.000 fold | 0.037 fold | 0.079 fold | 0.000 fold | 0.043 fold | 7.592 fold |  |  |  |  |  |  |  | 
